Laboratory results reported in patent US20230081426A1, “COMPOUNDS AND METHODS FOR KRAS MODULATION AND INDICATIONS THEREFOR” (Plexxikon Inc., priority 2020, published 2023).

The compounds below were run against T1, G12D-mutant human KRAS (amino acid residues 1-188) (Homo sapiens, UniProt P01116, G12D) (assay: KRAS Binding Disruption Assay (AlphaScreen; biotinylated KRpep-2d analogue or RAF1-RBD), G12D). Conditions: KRAS G12D; geometric mean; read-out: KRAS GMean IC50 (uM) MUTATION: G12D.
T1 construct: G12D or G12C-mutant human KRAS (amino acid residues 1-188) with FLAG tag; made in house; host or cells: E. coli
T1 sequence (P01116 1-188 isoform P01116-2 G12D): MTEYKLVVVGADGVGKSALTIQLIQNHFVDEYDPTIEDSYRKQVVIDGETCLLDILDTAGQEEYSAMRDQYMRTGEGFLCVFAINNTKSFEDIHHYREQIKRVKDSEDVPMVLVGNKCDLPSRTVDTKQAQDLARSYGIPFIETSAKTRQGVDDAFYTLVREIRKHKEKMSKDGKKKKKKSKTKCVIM
Procedure: Compound binding disrupts the interaction of KRpep-2d or RAF1-RBD with KRAS, leading to a decrease in Alpha signal.
All assay components were prepared in 20 mM HEPES (pH 7.5), 100 mM NaCl, 5 mM MgCl2, 0.01% Tween-20, and 0.01% BSA. Biotinylated analogues of KRpep-2d were custom synthesized. The binding disruption assays were performed using 5-20 nM of mutant KRAS and 5-20 nM of either biotinylated KRpep-2d analogue or RAF1-RBD. 19 μL of KRAS protein and 4 μL of biotinylated KRpep-2d or RAF1-RBD were added to the wells of a 384-well plate containing 1 μL of various concentrations of test compound or DMSO vehicle. 16 wells containing KRAS, biotinylated KRpep-2d or RAF1-RBD, and 5% DMSO served as high controls. 16 wells containing KRAS only and 5% DMSO served as low controls. Binding reactions were incubated for 1 hour at 25° C., then Anti-Flag Acceptor and Streptavidin Donor Alpha beads were added at a final concentration of 10 μg/mL for an additional hour at room temperature. Alpha signal was read out on a Perkin Elmer Envision HTS instrument. The percentage inhibition at individual compound concentrations relative to high and low controls was calculated. The data were analyzed by using nonlinear regression to generate IC50 values.

Structure (SMILES)	IC50 [µM]
CN1CCC[C@H]1COc1nc(N2C[C@@H]3CC[C@H]2CN3)c2ccc(-c3cc(O)cc4ccccc34)cc2n1 [P-0011, 4-(4-((1S,4S)-2,5-diazabicyclo[2.2.2]octan-2-yl)-2-(((S)-1-methylpyrrolidin-2-yl)methoxy)quinazolin-7-yl)naphthalen-2-ol]	0.0001 to 10
CN1CCC[C@H]1COc1nc(N2C[C@H]3CC[C@@H]2CN3)c2ccc(-c3cc(O)cc4ccccc34)cc2n1 [P-0012, 4-(4-((1R,4R)-2,5-diazabicyclo[2.2.2]octan-2-yl)-2-(((S)-1-methylpyrrolidin-2-yl)methoxy)quinazolin-7-yl)naphthalen-2-ol]	0.0001 to 10
Oc1cc(-c2ccc3c(N4C[C@H]5CC[C@@H](C4)N5Cc4ccccc4)nc(OCC45CCCN4CCC5)nc3c2)c2ccccc2c1 [P-0018, 4-(4-((1R,5S)-8-benzyl-3,8-diazabicyclo[3.2.1]octan-3-yl)-2-((tetrahydro-1H-pyrrolizin-7a(5H)-yl)methoxy)quinazolin-7-yl)naphthalen-2-ol]	0.0001 to 10
CN1CCC[C@H]1COc1nc(N2C[C@H]3CC[C@@H](C2)N3)c2cc(Cl)c(-c3cc(O)cc4ccccc34)nc2n1 [P-0045, 4-(4-((1R,5S)-3,8-diazabicyclo[3.2.1]octan-3-yl)-6-chloro-2-(((S)-1-methylpyrrolidin-2-yl)methoxy)pyrido[2,3-d]pyrimidin-7-yl)naphthalen-2-ol]	0.0001 to 10
CN(C)C(=O)CCOc1nc(N2C[C@H]3CC[C@@H](C2)N3)c2ccc(-c3cc(O)cc4ccccc34)cc2n1 [P-0071, 3-((4-((1R,5S)-3,8-diazabicyclo[3.2.1]octan-3-yl)-7-(3-hydroxynaphthalen-1-yl)quinazolin-2-yl)oxy)-N,N-dimethylpropanamide]	0.0001 to 10
CN(C)CC(CN)Oc1nc(N2C[C@H]3CC[C@@H](C2)N3)c2ccc(-c3cc(O)cc4ccccc34)cc2n1 (stereo partly drawn) [P-0074, 4-(2-((1-amino-3-(dimethylamino)propan-2-yl)oxy)-4-((1R,5S)-3,8-diazabicyclo[3.2.1]octan-3-yl)quinazolin-7-yl)naphthalen-2-ol]	0.0001 to 10
Oc1cc(-c2ccc3c(N4C[C@H]5CC[C@@H](C4)N5)nc(OCC4CCCO4)nc3c2)c2ccccc2c1 (stereo partly drawn) [P-0082, 4-(4-((1R,5S)-3,8-diazabicyclo[3.2.1]octan-3-yl)-2-((tetrahydrofuran-2-yl)methoxy)quinazolin-7-yl)naphthalen-2-ol]	0.0001 to 10
CN1CCOC[C@H]1COc1nc(N2C[C@H]3CC[C@@H](C2)N3)c2ccc(-c3cc(O)cc4ccccc34)cc2n1 [P-0084, 4-(4-((1R,5S)-3,8-diazabicyclo[3.2.1]octan-3-yl)-2-(((S)-4-methylmorpholin-3-yl)methoxy)quinazolin-7-yl)naphthalen-2-ol]	0.0001 to 10
CN1CCC[C@H]1COc1nc(N2C[C@H]3CC[C@@H](C2)N3C(=O)c2n[nH]c(=O)[nH]2)c2ccc(-c3cc(O)cc4ccccc34)cc2n1 [P-0113, 5-((1R,5S)-3-(7-(3-hydroxynaphthalen-1-yl)-2-(((S)-1-methylpyrrolidin-2-yl)methoxy)quinazolin-4-yl)-3,8-diazabicyclo[3.2.1]octane-8-carbonyl)-2,4-dihydro-3H-1,2,4-triazol-3-one]	10 to 100

Continued, values first:

IC50 [µM]	Structure (SMILES)
0.0001 to 10	CN1CCC[C@H]1COc1nc(N2C[C@H]3CC[C@@H](C2)N3)c2cnc(-c3cc(O)cc4ccccc34)cc2n1 [P-0004, 4-(4-((1R,5S)-3,8-diazabicyclo[3.2.1]octan-3-yl)-2-(((S)-1-methylpyrrolidin-2-yl)methoxy)pyrido[4,3-d]pyrimidin-7-yl)naphthalen-2-ol]
0.0001 to 10	Cc1c(-c2cc(O)cc3ccccc23)ccc2c(N3C[C@H]4CC[C@@H](C3)N4)nc(OC[C@@H]3CCCN3C)nc12 [P-0014, 4-(4-((1R,5S)-3,8-diazabicyclo[3.2.1]octan-3-yl)-8-methyl-2-(((S)-1-methylpyrrolidin-2-yl)methoxy)quinazolin-7-yl)naphthalen-2-ol]
0.0001 to 10	CN1CCC[C@H]1COc1nc(N2C[C@H]3CC[C@@H](C2)N3)c2cc(Cl)c(-c3cc(O)cc4ccccc34)c(OCC(F)(F)F)c2n1 [P-0033, 4-(4-((1R,5S)-3,8-diazabicyclo[3.2.1]octan-3-yl)-6-chloro-2-(((S)-1-methylpyrrolidin-2-yl)methoxy)-8-(2,2,2-trifluoroethoxy)quinazolin-7-yl)naphthalen-2-ol]
0.0001 to 10	CO[C@@H]1CN(C)C[C@H]1Oc1nc(N2C[C@H]3CC[C@@H](C2)N3)c2cc(Cl)c(-c3cc(O)cc4ccccc34)c(F)c2n1 [P-0035, 4-(4-((1R,5S)-3,8-diazabicyclo[3.2.1]octan-3-yl)-6-chloro-8-fluoro-2-(((3R,4R)-4-methoxy-1-methylpyrrolidin-3-yl)oxy)quinazolin-7-yl)naphthalen-2-ol]
0.0001 to 10	CN1CCC[C@H]1COc1nc(N2CC3COCC(C2)N3)c2cc(Cl)c(-c3cc(O)cc4ccccc34)c(F)c2n1 [P-0040, 4-(4-(3-oxa-7,9-diazabicyclo[3.3.1]nonan-7-yl)-6-chloro-8-fluoro-2-(((S)-1-methylpyrrolidin-2-yl)methoxy)quinazolin-7-yl)naphthalen-2-ol]
0.0001 to 10	CN1CCC[C@H]1COc1nc(N2C[C@H]3C[C@@H]2CN3)c2cc(Cl)c(-c3cc(O)cc4ccccc34)c(F)c2n1 [P-0041, 4-(4-((1R,4R)-2,5-diazabicyclo[2.2.1]heptan-2-yl)-6-chloro-8-fluoro-2-(((S)-1-methylpyrrolidin-2-yl)methoxy)quinazolin-7-yl)naphthalen-2-ol]
0.0001 to 10	CN1CCC[C@H]1COc1nc(N2C[C@H]3C[C@@H]2CN3)c2ccc(-c3cc(O)cc4ccccc34)cc2n1 [P-0051, 4-(4-((1R,4R)-2,5-diazabicyclo[2.2.1]heptan-2-yl)-2-(((S)-1-methylpyrrolidin-2-yl)methoxy)quinazolin-7-yl)naphthalen-2-ol]
0.0001 to 10	CN1CCC[C@H]1COc1nc(N2C[C@@H]3C[C@H]2CN3)c2ccc(-c3cc(O)cc4ccccc34)cc2n1 [P-0052, 4-(4-((1S,4S)-2,5-diazabicyclo[2.2.1]heptan-2-yl)-2-(((S)-1-methylpyrrolidin-2-yl)methoxy)quinazolin-7-yl)naphthalen-2-ol]
10 to 100	CN(C)CCN(C)c1nc(N2C[C@H]3CC[C@@H](C2)N3)c2ccc(-c3cc(O)cc4ccccc34)cc2n1 [P-0057, 4-(4-((1R,5S)-3,8-diazabicyclo[3.2.1]octan-3-yl)-2-((2-(dimethylamino)ethyl)(methyl)amino)quinazolin-7-yl)naphthalen-2-ol]
0.0001 to 10	CN1CC[C@@H](COc2nc(N3C[C@H]4CC[C@@H](C3)N4)c3ccc(-c4cc(O)cc5ccccc45)cc3n2)C1 [P-0069, 4-(4-((1R,5S)-3,8-diazabicyclo[3.2.1]octan-3-yl)-2-(((R)-1-methylpyrrolidin-3-yl)methoxy)quinazolin-7-yl)naphthalen-2-ol]
10 to 100	CN(C)C(=O)COc1nc(N2C[C@H]3CC[C@@H](C2)N3)c2ccc(-c3cc(O)cc4ccccc34)cc2n1 [P-0070, 2-((4-((1R,5S)-3,8-diazabicyclo[3.2.1]octan-3-yl)-7-(3-hydroxynaphthalen-1-yl)quinazolin-2-yl)oxy)-N,N-dimethylacetamide]
0.0001 to 10	Oc1cc(-c2ccc3c(N4C[C@H]5CC[C@@H](C4)N5Cc4ccccn4)nc(OCC45CCCN4CCC5)nc3c2)c2ccccc2c1 [P-0076, 4-(4-((1R,5S)-8-(pyridin-2-ylmethyl)-3,8-diazabicyclo[3.2.1]octan-3-yl)-2-((tetrahydro-1H-pyrrolizin-7a(5H)-yl)methoxy)quinazolin-7-yl)naphthalen-2-ol]
0.0001 to 10	Oc1cc(-c2ccc3c(N4C[C@H]5CC[C@@H](C4)N5)nc(OCC4CCOC4)nc3c2)c2ccccc2c1 (stereo partly drawn) [P-0081, 4-(4-((1R,5S)-3,8-diazabicyclo[3.2.1]octan-3-yl)-2-((tetrahydrofuran-3-yl)methoxy)quinazolin-7-yl)naphthalen-2-ol]
10 to 100	CNCCOc1nc(N2C[C@H]3CC[C@@H](C2)N3)c2ccc(-c3cc(O)cc4ccccc34)cc2n1 [P-0083, 4-(4-((1R,5S)-3,8-diazabicyclo[3.2.1]octan-3-yl)-2-(2-(methylamino)ethoxy)quinazolin-7-yl)naphthalen-2-ol]
0.0001 to 10	CN1CCC1COc1nc(N2C[C@H]3CC[C@@H](C2)N3)c2ccc(-c3cc(O)cc4ccccc34)cc2n1 (stereo partly drawn) [P-0086, 4-(4-((1R,5S)-3,8-diazabicyclo[3.2.1]octan-3-yl)-2-((1-methylazetidin-2-yl)methoxy)quinazolin-7-yl)naphthalen-2-ol]

Same assay, conditions: Table 3; geometric mean; bridged vs non-bridged R1; read-out: KRAS GMean IC50 (uM) MUTATION: G12D

IC50 [µM]	Structure (SMILES)
1.11	CN1CCC[C@H]1COc1nc(N2CCNCC2)c2cc(Cl)c(-c3cc(O)cc4ccccc34)c(F)c2n1 [Non-bridged version of P-0001, reference compound]

Same assay, conditions: Table 4; geometric mean; comparison with compounds of WO 2017/172979; read-out: KRAS GMean IC50 (uM) MUTATION: G12D

IC50 [µM]	Structure (SMILES)
3.06	CC1CN(c2nc(OCCCN3CCC(F)(F)C3)nc3c(F)c(-c4cc(O)cc5ccccc45)c(Cl)cc23)C(C)CN1 (stereo not drawn) [Compound 36 in WO 2017/172979, reference compound]
16.5	CN(C)CCCOc1nc(N2CCN(C)CC2)c2cc(Cl)c(-c3cc(O)cc4ccccc34)c(F)c2n1 [Compound 149 in WO 2017/172979, reference compound]
